The values that follow come from patent US10837058B2, “Markers of papillary and reticular fibroblasts and uses thereof” (CHANEL PARFUMS BEAUTE, priority 2011, dated 2020).

What all share (format): cell-based, human
The subject of test [1] is reticular or papillary fibroblasts. The experiment in a line: Compound screening on reticular or papillary fibroblasts, qPCR of 3 papillary and 3 reticular markers. As to conditions: high=0.01% v/v, low=0.0001% v/v, 24 hrs; CCRL1, NTN1, PDPN, MGP, PPP1R14A, TGM2; FIG. 2. The method, then: The fibroblasts were isolated and cultured as described above (example 1).
12000 reticular or papillary fibroblasts were seeded in 12 well culture plates (Costar). The fibroblasts were cultured for 5 days until 90% of the surface area was covered. Two different concentrations (low/high) of compounds were applied for 24 hrs. Pictures were taken before and after application. No differences in morphology and were observed (data not shown). RNA was isolated as described in example 1.
qPCR analysis was performed using 3 papillary (CCRL1, NTN1 and PDPN) and 3 reticular (MGP, PPP1R14A and TGM2) markers, according to example 1. The expression was normalized using two reference genes (SND1 and EI24). The effect of verbascoside was determined by comparing the expression of the genes to the expression of vehicle treated fibroblasts.

For test [2], the system named is papillary fibroblasts. As to the kind of experiment: TGF-β1 treatment of monolayer papillary fibroblasts, marker expression by qPCR. As to conditions: TGF-β1 2 or 10 ng/mL, 2 or 4 days. The method, then:
cDNA was generated of 1 μg RNA using the iScript cDNA synthesis kit (BioRad, Veenendaal, The Netherlands) according to manufacturer's instructions. PCR reactions were based on the SYBR Green method (BioRad) and consisted of 2× Sybr Green Mastermix, 1 ng cDNA template and 500 nM of forward and reverse primers. The PCRs were run on the MyIQ system (BioRad). The PCR cycles were: 3,5 minutes at 95 C to activate the polymerase, 35 cycles of 20 sec 95 C and 40 sec 60 C, followed by the generation of a melt curve. Primers were checked before on dilution series of normal fibroblasts cDNA. References genes were analyzed with the GeNorm method (20). Expression analysis was performed with the BioRad Software (iQ5) and was based on the delta delta Ct method with the reference genes that were most stably expressed in the GeNorm analysis.
(§1) Monolayer cultures of papillary fibroblasts were treated with TGF-β1, 2 or 10 ng/mL, for 2 or 4 days. Then the expression of the reticular and papillary markers was measured by qPCR and by IHC staining on the cultures.

In test [3] the test system is papillary fibroblasts. The experiment in a line: TGF-β1 treatment of monolayer papillary fibroblasts, IHC staining and morphology. Conditions: TGF-β1 2 or 10 ng/mL, 2 or 4 days. The method, then: For IHC on monolayer cell cultures, fibroblasts were grown on glass slides until nearly confluent, washed in PBS and fixed with 4% formaldehyde. Staining was visualized by a secondary antibody with a fluorescent dye (Cy3). DAPI was used as counterstain.
as §1

For the molecule `C[C@@H]1O[C@@H](O[C@@H]2[C@@H](O)[C@H](OCCc3ccc(O)c(O)c3)O[C@H](CO)[C@H]2OC(=O)/C=C/c2ccc(O)c(O)c2)[C@H](O)[C@H](O)[C@H]1O` [Verbascoside], in test [1], the “effect on reticular/papillary marker gene signature (qPCR, vs vehicle treated fibroblasts)” value is on record as “able to alter the reticular signature into a papillary signature”.

On to “TGF-β1: TGF-β1, can induce differentiation of fibroblasts to myofibroblasts”, for which the “differentiation of papillary fibroblasts as measured by qPCR” value in test [2] (monolayer cell cultures) is recorded as “caused differentiation to reticular fibroblasts”. In test [2] (data not shown), the “expression of papillary markers (qPCR)” value was “decreased” and the “expression of reticular markers (qPCR)” value is on record as “increased”. In addition, in test [3], the “myofibroblast differentiation: a-SMA expression” value was “increased a-SMA expression”, the “myofibroblast differentiation: morphological changes” value is recorded as “increase in cell size”, the “papillary marker PDPN by IHC staining” value was “loss of papillary marker PDPN” and the “reticular marker TGM2 by IHC staining” value is “gain of reticular marker TGM2”.
